Source: patent US20240368115A1, “REGULATOR CONTAINING TRICYCLIC DERIVATIVE, PREPARATION METHOD THEREFOR AND APPLICATION THEREOF” (SHUJING BIOPHARMA CO., LTD, priority 2021, published 2024)

How the values were obtained:
[1] = target: T1, D2L receptor (Homo sapiens, UniProt P14416); test: D2L receptor cAMP agonist test; assay type: cell-based; settings: HEK293 cell strain stably expressing D2L receptor; for EC50: cAMP, forskolin 0.5 μM; for D2L Max Act %: positive control dopamine 1 μM
T1 construct: expressed in transfected cells
T1 sequence (P14416 whole entry): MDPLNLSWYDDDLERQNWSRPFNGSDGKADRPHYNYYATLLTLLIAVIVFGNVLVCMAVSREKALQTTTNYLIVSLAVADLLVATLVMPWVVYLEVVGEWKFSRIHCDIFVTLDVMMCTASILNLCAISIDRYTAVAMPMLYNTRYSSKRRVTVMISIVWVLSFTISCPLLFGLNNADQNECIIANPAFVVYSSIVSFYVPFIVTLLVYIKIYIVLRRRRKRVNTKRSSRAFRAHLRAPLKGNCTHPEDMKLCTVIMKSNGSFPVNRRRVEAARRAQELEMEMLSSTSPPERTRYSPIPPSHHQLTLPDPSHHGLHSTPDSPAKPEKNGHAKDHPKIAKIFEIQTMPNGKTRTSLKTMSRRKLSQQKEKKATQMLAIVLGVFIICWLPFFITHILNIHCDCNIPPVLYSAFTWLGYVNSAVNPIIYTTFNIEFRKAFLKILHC
Description: (§1) • cAMP detection kit was purchased from Cisbio; an HEK293 cell strain stably expressing D2L receptor was constructed by Shanghai Shujing Biopharma Co., Ltd.; dopamine, forskolin, and IBMX were purchased from Sigma; ProxiPlate-384 well plates were purchased from PerkinElmer; HBSS was purchased from Thermo Fisher Scientific.
• (1) The cryopreserved cells were thawed in a water bath at 37° C., the cell suspension was resuspended in HBSS buffer, and the mixed solution was centrifuged at 750 rpm for 5 min to remove the medium. The pellet was resuspended in an appropriate amount of experimental buffer, and an appropriate amount of cell suspension was diluted to 0.4×10^6 cells/mL. • (2) 5 μL of cell suspension was added to a ProxiPlate-384 well plate (2×10^3 cells/well), and the plate was centrifuged at 1000 rpm for 1 min. • (3) Test compounds were serially diluted in an experimental buffer, and 5 μL of the mixed solution was transferred to the reaction plate with Bravo.

[2] = target: T2, 5-HT1A receptor (Homo sapiens, UniProt P08908); test: 5-HT1A receptor cAMP agonist test; assay type: cell-based; settings: HEK293 cell strain stably expressing 5-HT1A receptor; for EC50: cAMP, forskolin 2.5×10^−7 M; for 5-HT1A Max Act %: positive control serotonin 10^−6 M
T2 construct: expressed in transfected cells
T2 sequence (P08908 1-422): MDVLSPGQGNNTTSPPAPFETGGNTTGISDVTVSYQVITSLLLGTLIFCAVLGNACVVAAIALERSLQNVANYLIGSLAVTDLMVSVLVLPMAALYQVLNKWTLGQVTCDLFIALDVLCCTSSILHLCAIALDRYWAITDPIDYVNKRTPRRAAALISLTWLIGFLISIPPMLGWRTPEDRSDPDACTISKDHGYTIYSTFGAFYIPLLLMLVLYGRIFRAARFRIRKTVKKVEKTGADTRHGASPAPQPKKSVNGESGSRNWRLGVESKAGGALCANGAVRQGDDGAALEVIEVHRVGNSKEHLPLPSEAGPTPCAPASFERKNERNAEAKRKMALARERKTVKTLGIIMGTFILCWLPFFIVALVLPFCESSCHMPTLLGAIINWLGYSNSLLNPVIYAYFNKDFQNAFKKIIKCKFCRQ
Text: as §1, with “5-HT1A” for “D2L”, “serotonin,” for “dopamine,”
(§2) • (1) The cultured cells were digested with trypsin, and the cell suspension was washed with HBSS buffer after the digestion was terminated. The medium was removed by centrifugation at 200×g. The pellet was resuspended in an appropriate amount of experimental buffer, and 20 μL of cell suspension was counted using a cell counter and diluted to 0.4×10^6 cells/mL. • (2) 5 μL of cell suspension was added to a ProxiPlate-384 well plate (2×10^3 cells/well). • (3) Test compounds were serially diluted in an experimental buffer, and 5 μL of the mixed solution was transferred to the reaction plate with Bravo.

[3] = Pharmacokinetic test in mice; assay type: in vivo; settings: male, ICR, mouse, plasma, po, 5 mg/kg, oral intragastric, single dose 5 mg/kg; for AUC(0-inf): read-out: AUC(0-inf); for Cmax: read-out: Cmax
Description: Male ICR mice were administered orally intragastrically, the plasma concentrations of the compounds of the present invention were measured in the mice, the PK parameters were calculated, and the pharmacokinetic evaluation was performed on the compounds of the present invention.
• (1) Test samples: the compounds of the examples of the present invention, self-made. • (2) Test animals: ICR mice, SPF grade, male, Xuzhou Medical University. • (3) Main test instruments:
Drug preparation: according to the weight of the weighed drug, the preparation volume was calculated. 5% of DMSO was added firstly. After the drug was fully dissolved, 95% of 20% aqueous PB-cyclodextrin solution was then added, and the mixture was mixed well for later use.
Administration route: oral intragastric administration. Frequency and duration of administration: single administration.
ICR mice were stratified according to body weight and then randomly divided into groups of 9 mice each, and the mice were fasted overnight prior to the test. The mice were separately administered orally intragastrically. 50 μL of blood was collected from the fundus vein of the mouse at 0 h, 0.083 h, 0.25 h, 0.5 h, 1 h, 2 h, 4 h, 8 h, 12 h, and 24 h (3 time points for each mouse) to a sample tube containing heparin sodium as an anticoagulant, and the tube was placed in wet ice and centrifuged at 4000 r·min^−1 for 10 min. The plasma was separated, and cryopreserved in a refrigerator at −80° C. for testing.
The concentrations of plasma samples were measured by high performance liquid chromatography-tandem mass spectrometry (LC-MS/MS). The retention times of the compounds and internal standard, chromatogram acquisitions, and integrals of chromatograms were processed using the software Analyst (AB SCIEX), and the data statistics were processed using the software Watson LIMS (Thermo Fisher Scientific) or Analyst (AB SCIEX). The concentration of plasma was processed using a non-compartmental model of the pharmacokinetic software WinNonlin™ Version 6.3 (Pharsight, Mountain View, CA), and pharmacokinetic parameters were calculated by a linear log-trapezoidal method.

[4] = target: T3, D2S receptor (Homo sapiens, UniProt P14416); test: D2S receptor cAMP agonist test; assay type: cell-based; settings: HEK293 cell strain stably expressing D2S receptor; for EC50: cAMP, forskolin 5×10^−7 M; for D2S Max Act %: positive control dopamine 1×10^−7 M
T3 construct: expressed in transfected cells
T3 sequence (P14416 1-414 isoform P14416-2): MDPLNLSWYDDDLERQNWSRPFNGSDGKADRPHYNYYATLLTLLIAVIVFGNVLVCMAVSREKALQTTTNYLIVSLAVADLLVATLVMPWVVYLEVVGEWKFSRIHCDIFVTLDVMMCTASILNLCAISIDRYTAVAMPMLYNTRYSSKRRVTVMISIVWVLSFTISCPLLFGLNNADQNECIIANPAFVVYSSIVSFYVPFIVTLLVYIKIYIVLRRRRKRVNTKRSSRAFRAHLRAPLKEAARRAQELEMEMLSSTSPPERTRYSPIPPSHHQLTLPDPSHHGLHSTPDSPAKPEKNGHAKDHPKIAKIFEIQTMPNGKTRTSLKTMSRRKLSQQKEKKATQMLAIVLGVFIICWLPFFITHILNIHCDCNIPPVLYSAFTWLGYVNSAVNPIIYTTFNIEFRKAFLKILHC
Text: as §1, with “cAMP” for “• cAMP”, “D2S” for “D2L”
as §2, with “0.6×10^6” for “0.4×10^6”, “(3×10^3” for “(2×10^3”

[5] = target: 5-HT2A receptor (Homo sapiens, UniProt P28223); test: Calcium flux test for 5-HT2A receptor; assay type: cell-based; settings: CHO cell strain stably expressing 5-HT2A receptor; for IC50: calcium flux, antagonism of serotonin; for 5-HT2A Max Inh %: positive control ketanserin 10^−7 M
Chain of 5-HT2A receptor (P28223 whole entry): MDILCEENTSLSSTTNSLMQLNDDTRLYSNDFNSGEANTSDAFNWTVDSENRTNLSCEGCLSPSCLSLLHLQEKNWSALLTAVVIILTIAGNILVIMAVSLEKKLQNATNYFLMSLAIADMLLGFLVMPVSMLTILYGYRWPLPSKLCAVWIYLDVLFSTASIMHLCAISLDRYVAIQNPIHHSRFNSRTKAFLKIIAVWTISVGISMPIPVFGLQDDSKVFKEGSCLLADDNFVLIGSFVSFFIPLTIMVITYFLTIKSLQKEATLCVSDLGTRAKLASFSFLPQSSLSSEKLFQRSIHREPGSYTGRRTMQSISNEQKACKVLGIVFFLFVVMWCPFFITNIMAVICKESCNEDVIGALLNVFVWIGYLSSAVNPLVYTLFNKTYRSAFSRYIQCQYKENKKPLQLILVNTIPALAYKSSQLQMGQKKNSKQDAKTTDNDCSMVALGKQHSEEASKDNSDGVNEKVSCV
Description: • Fluo-4 calcium flux detection kit was purchased from Invitrogen; a CHO cell strain stably expressing 5-HT2A receptor was purchased from PerkinElmer; serotonin was purchased from Sigma; ketanserin was purchased from Targetmol; polylysine-coated 384-well plates and 384-well compound plates were purchased from Greiner Bio-One. Molecular Device FLIPR, Agilent Bravo liquid workstation, and Countstar BioTech cell counter.
• (1) The cryopreserved cells were rapidly thawed in a water bath at 37° C., and the cells were resuspended in a plating medium. The cryopreservation solution was removed by centrifugation at 200×g. The pellet was resuspended in an appropriate amount of plating medium, 20 μL of cell suspension was counted using a cell counter, and the cell density was diluted to 1×10^6 cells/mL. • (2) 20 μL of cell suspension was added to a polylysine-coated 384-well plate (2×10^4 cells/well). • (3) The cell plate was incubated in a 37° C./5% CO2 incubator for 16-20 h.
• (1) The cell plate was taken out from the incubator and centrifuged at 100×g to remove the medium. 20 μL of experimental buffer was added, and then 20 μL of 2× fluorescent probe solution was added. […] The cell plate and agonist positive compound plate were placed into the FLIPR instrument, the detection program was run, 10 μL of the diluted compound was transferred from the agonist compound plate to the cell plate, and the fluorescence signal was read. […] The cell plate and test compound plate were placed in the FLIPR instrument, the detection program was run, and 10 μL of the diluted compound was transferred from the test compound plate to the cell plate. […] The test compound plate was then taken out, and the agonist positive compound plate with 6×EC50 concentration was placed.
Inhibition rate (Inhibition %)=(negative control reading value−compound reading value)/(negative control reading value−positive control reading value)×100%

SMILES	EC50 [1] [nM]	D2L Max Act % [1] [%]	EC50 [2] [nM]	5-HT1A Max Act % [2] [%]	half-life [3] [h]	AUC(0-inf) [3] [ng·h/mL]	Cmax [3] [ng/mL]	EC50 [4] [nM]	D2S Max Act % [4] [%]	IC50 [5] [nM]	5-HT2A Max Inh % [5] [%]
O=C1Nc2cc(OCCCCN3CCN(c4cccc5sccc45)CC3)ccc2C2CC12 (stereo not drawn) [Example 42, 5-(4-(4-(Benzo[b]thiophen-4-yl)piperazin-1-yl)butoxy)-1,1a,3,7b-tetrahydro-2H-cyclopropa[c]quinolin-2-one]	0.47	32.7	313	55.7	13	11300	687	0.95	106.0	1690	100.6
O=C1Nc2cc(OCCCCN3CCN(c4cccc5sccc45)CC3)ccc2C2CC12 (single isomer, unassigned) [Example 42-P1]	0.99	29.6	143	62.9	4.1	8000	1180	1	102.0	1950	100.5
O=C1Nc2cc(OCCCCN3CCN(c4cccc5c4OC(F)(F)O5)CC3)ccc2C2CC12 (stereo not drawn) [Example 41, 5-(4-(4-(2,2-Difluorobenzo[d][1,3]dioxolan-4-yl)piperazin-1-yl)butoxy)-1,1a,3,7b-tetrahydro-2H-cyclopropa[c]quinolin-2-one]	0.97	42.4	50.8	92.7	8.6	9970	971	0.92	115.0	3350	80.4
O=C1Nc2cc(OCCCCN3CCN(c4cccc(Cl)c4Cl)CC3)ccc2[C@@H]2C[C@H]12 (single isomer, unassigned) [Example 1-P2]	0.61	33.1	1210	45.2	10.8	7100	430	1.49	113.8	737	100.3
O=C1Nc2cc(OCCCCN3CCN(c4cccc5c4CCO5)CC3)ccc2C2CC12 (stereo not drawn) [Example 45, 5-(4-(4-(2,3-Dihydrobenzofuran-4-yl)piperazin-1-yl)butoxy)-1,1a,3,7b-tetrahydro-2H-cyclopropa c quinolin-2-one]	0.44	41.3	253	54.7	6.1	9650	1160	0.93	105.6	460	100.1
O=C1Nc2cc(OCCCCN3CCN(c4cccc(Cl)c4Cl)CC3)ccc2[C@H]2C[C@@H]12 (single isomer, unassigned) [Example 1-P1]	1.07	47.7	1800	33.9	34.3	13100	341	0.94	111.9	745	100.3
